Test results: publication PMC6152123, “Sites for Dynamic Protein-Carbohydrate Interactions of O- and C-Linked Mannosides on the E. coli FimH Adhesin” (Molecules : A Journal of Synthetic Chemistry and Natural …, 2017)
Where “and” joins values, the source holds several entries; their conditions need not be identical. Equal entries are not always repeated. Where two headings read alike, the source gives them in different places.

Legend:
FimH = settings: Tables 1-3; read-out: Kd ITC (converted); cited from earlier work
FimH lectin domain [1] = target: T1, FimH lectin domain (Escherichia coli, UniProt P08191); assay: biochemical; assay type: binding, E. coli strain J96
FimH lectin domain [2] = target: T1, FimH lectin domain; settings: read-out: Kd SPR; solution affinity by SPR; cited from earlier work
FimH lectin domain [3] = target: T1, FimH lectin domain; assay: SPR direct binding of FimH to receptor immobilized on sensor chip (steady state affinity); set-up: species or system E. coli strain J96; settings: Ss: steady state affinity (Kd), direct binding of FimH to 5b coupled to CM5 sensor chip
Method: The equilibrium dissociation constant Kd of FimH for the mannose derivatives was determined using a competition assay in solution. In this assay, the mannose derivatives compete with an immobilized Fab fragment from the monoclonal anti-FimH antibody 1C10 or with an immobilized 8-aminooctyl α-D-mannopyranoside (5b) for FimH binding, as described earlier [34]. The global kinetic constants ka, kd and Rmax of the FimH-ligand interaction of binding were fitted using the BiaEval software.

[4] = Figure S19, fit of solution affinity model to inhibition curve
[5] = KD(M), Figure S19, fit of solution affinity model to inhibition curve
[6] = Kd SPR (nM), solution affinity by SPR competition, Tables 1-3

T1 sequence (P08191 22-179 limits assumed): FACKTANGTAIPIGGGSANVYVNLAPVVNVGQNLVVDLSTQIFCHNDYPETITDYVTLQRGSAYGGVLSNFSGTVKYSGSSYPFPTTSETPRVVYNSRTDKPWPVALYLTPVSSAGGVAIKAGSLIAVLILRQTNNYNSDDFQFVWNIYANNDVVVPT

CCCCO[C@H]1O[C@H](CO)[C@@H](O)[C@H](O)[C@@H]1O [Compound 4, reference compound]
Kd (FimH): 156 nM

CCCCCCCO[C@H]1O[C@H](CO)[C@@H](O)[C@H](O)[C@@H]1O [Compound 5, heptyl α-D-mannopyranoside, reference compound]
KA (FimH lectin domain [1]; [4]): 231691100 M⁻¹
Kd (FimH lectin domain [1]; [5]): 4.32e-09 M
Kd (FimH lectin domain [2]): 4.3 ± 0.3 nM
Kd (FimH): 7.3 nM

CCCCCCCCO[C@H]1O[C@H](CO)[C@@H](O)[C@H](O)[C@@H]1O [Compound 5a, octyl α-D-mannopyranoside, reference compound]
KA (FimH lectin domain [1]; [4]): 46550590.5 M⁻¹
Kd (FimH lectin domain [1]; [5]): 2.15e-08 M
Kd (FimH lectin domain [2]): 21 ± 0.2 nM

NCCCCCCCCO[C@H]1O[C@H](CO)[C@@H](O)[C@H](O)[C@@H]1O [Compound 5b, 8-aminooctyl α-D-mannopyranoside]
Kd (FimH lectin domain [1]; [6]): 1.8e-08 ± 4e-10 M
Kd (FimH lectin domain [3]): 16.9 nM and 17 nM

OC[C@H]1O[C@H](OC/C=C/c2ccccc2)[C@@H](O)[C@@H](O)[C@@H]1O [Compound 22]
Kd (FimH lectin domain [1]; [6]): 5.3e-08 ± 7.5e-09 M

OC[C@H]1O[C@H](OC/C=C/c2ccc(-c3ccccc3)cc2)[C@@H](O)[C@@H](O)[C@@H]1O [Compound 23]
Kd (FimH lectin domain [1]; [6]): 3e-09 ± 1.1e-09 M

OC[C@H]1O[C@H](OC/C=C/c2ccccc2-c2ccccc2)[C@@H](O)[C@@H](O)[C@@H]1O [Compound 24]
Kd (FimH lectin domain [1]; [6]): 4.3e-09 ± 8e-10 M

OC[C@H]1O[C@H](OC/C=C/c2cccc3ccccc23)[C@@H](O)[C@@H](O)[C@@H]1O [Compound 25]
Kd (FimH lectin domain [1]; [6]): 5e-09 ± 1.4e-09 M
Kd (FimH): 71 nM

OC[C@H]1O[C@H](OCCCc2ccccc2)[C@@H](O)[C@@H](O)[C@@H]1O [Compound 26]
Kd (FimH lectin domain [1]; [6]): 5.9e-08 ± 8.5e-09 M

OC[C@H]1O[C@H](OCCCc2ccc(-c3ccccc3)cc2)[C@@H](O)[C@@H](O)[C@@H]1O [Compound 27]
Kd (FimH lectin domain [1]; [6]): 1e-08 ± 2e-10 M
Kd (FimH): 1.5 nM

OC[C@H]1O[C@H](OCCCc2ccccc2-c2ccccc2)[C@@H](O)[C@@H](O)[C@@H]1O [Compound 28]
Kd (FimH lectin domain [1]; [6]): 1.3e-08 ± 1.7e-09 M

OC[C@H]1O[C@H](OCCCc2cccc3ccccc23)[C@@H](O)[C@@H](O)[C@@H]1O [Compound 29]
Kd (FimH lectin domain [1]; [6]): 2.2e-08 ± 3e-09 M

OC[C@H]1O[C@H](OCCCSCc2ccccc2)[C@@H](O)[C@@H](O)[C@@H]1O [Compound 35]
Kd (FimH lectin domain [1]; [6]): 1.6e-08 ± 2.4e-09 M

CCCCSCCCO[C@H]1O[C@H](CO)[C@@H](O)[C@H](O)[C@@H]1O [Compound 36]
Kd (FimH lectin domain [1]; [6]): 2.2e-08 ± 2.7e-09 M

CCCSCCCO[C@H]1O[C@H](CO)[C@@H](O)[C@H](O)[C@@H]1O [Compound 37]
Kd (FimH lectin domain [1]; [6]): 1.4e-08 ± 5e-09 M

CCSCCCO[C@H]1O[C@H](CO)[C@@H](O)[C@H](O)[C@@H]1O [Compound 38]
Kd (FimH lectin domain [1]; [6]): 1.4e-08 ± 7.6e-09 M

CC(C)SCCCO[C@H]1O[C@H](CO)[C@@H](O)[C@H](O)[C@@H]1O [Compound 39]
Kd (FimH lectin domain [1]; [6]): 1.1e-08 ± 6.1e-09 M

C#CCO[C@H]1O[C@H](CO)[C@@H](O)[C@H](O)[C@@H]1O [Compound 41]
Kd (FimH lectin domain [1]; [6]): 4.9e-07 ± 5.5e-08 M

OC[C@H]1O[C@H](OCC#Cc2ccccc2)[C@@H](O)[C@@H](O)[C@@H]1O [Compound 50]
Kd (FimH lectin domain [1]; [6]): 1.68e-07 ± 1.5e-08 M

OC[C@H]1O[C@H](OCC#Cc2ccc(-c3ccccc3)cc2)[C@@H](O)[C@@H](O)[C@@H]1O [Compound 51]
Kd (FimH lectin domain [1]; [6]): 4.05e-07 ± 2.4e-08 M

OC[C@H]1O[C@H](OCC#Cc2ccccc2-c2ccccc2)[C@@H](O)[C@@H](O)[C@@H]1O [Compound 52]
Kd (FimH lectin domain [1]; [6]): 2.25e-06 ± 2.91e-07 M

OC[C@H]1O[C@H](OCC#Cc2cccc3ccccc23)[C@@H](O)[C@@H](O)[C@@H]1O [Compound 53]
Kd (FimH lectin domain [1]; [6]): 1.2e-07 ± 1.8e-08 M

OC[C@H]1O[C@H](OCC#Cc2cccs2)[C@@H](O)[C@@H](O)[C@@H]1O [Compound 54]
Kd (FimH lectin domain [1]; [6]): 1.33e-07 ± 3.1e-08 M

OC[C@H]1O[C@H](OCC#Cc2cccnc2)[C@@H](O)[C@@H](O)[C@@H]1O [Compound 55]
Kd (FimH lectin domain [1]; [6]): 8.3e-08 ± 5.6e-09 M

COc1ccc(C#CCO[C@H]2O[C@H](CO)[C@@H](O)[C@H](O)[C@@H]2O)cc1 [Compound 56]
Kd (FimH lectin domain [1]; [6]): 5.3e-08 ± 2.3e-09 M

O=[N+]([O-])c1ccc(C#CCO[C@H]2O[C@H](CO)[C@@H](O)[C@H](O)[C@@H]2O)cc1 [Compound 57]
Kd (FimH lectin domain [1]; [6]): 8.16e-07 ± 1.05e-07 M

OCC#Cc1ccc(O[C@H]2O[C@H](CO)[C@@H](O)[C@H](O)[C@@H]2O)cc1 [Compound 61]
Kd (FimH lectin domain [1]; Kd SPR (nM), Table S2): 6.9e-09 ± 1e-09 M
Kd (FimH lectin domain [1]; [6]): 3.69e-08 ± 3e-09 M

COCC#Cc1ccc(O[C@H]2O[C@H](CO)[C@@H](O)[C@H](O)[C@@H]2O)cc1 [Compound 62]
Kd SPR (nM) (FimH lectin domain [1]; Table S2): nf
Kd SPR (nM) (FimH lectin domain [1]; solution affinity by SPR competition, Tables 1-3): nf *
Kd (FimH): 59.5 ± 2.3 nM
